This note sets out measurements from patent publication US7070983B2, “Mutant Pseudomonas putida strains and methods of use thereof” (priority 2003, dated 2006).

Each structure is given as a SMILES string.

Type in all cases: cell-based, Pseudomonas putida
In one assay the test system is parental strain KH146-2. Put plainly: Antibiotic growth suppression on LB agar. An excerpt:
(§1) Spontaneous streptomycin-resistant (Str), gentamicin-resistant (Gen) or rifampicin-resistant (Rif) mutants were obtained from colonies that grew within 3 days after wild-type cells were spread on LB agar containing various concentrations of antibiotic.
We first isolated a number of spontaneous streptomycin-resistant (Str), gentamicin-resistant (Gen) and rifampicin-resistant (Rif) mutants of P. putida KH146-2. These mutants appeared at a frequency of 10^−5–10^−6 when KH146-2 cells were spread on LB agar containing various amounts of antibiotics. […] Forty mutants resistant to each antibiotic were randomly selected and examined for tolerance to 4-hydroxybenzoic acid (4HBA). 4HBA-tolerant strains, which could grow in the presence of 1% 4HBA, were detected among these antibiotic resistant mutants at a high frequency of 3 to 15% (Table 1). The highest frequency (15%) was detected in the mutants selected with 1000 μg ml^−1 of streptomycin. These 4HBA-tolerant isolates all grew as well as the parent strain on LB agar.

Assay [1] has as its system P. putida strain no. 2 (str-1). Briefly: Resistance level to antibiotic on LB agar. The conditions noted are these: 1 days on LB agar.
Text: as §1

The subject of assay [2] is P. putida strain no. 6 (str-1). Briefly: Resistance level to antibiotic on LB agar. The conditions noted are these: 1 days on LB agar.
Text: as §1

Assay [3] deals with P. putida strain no. 5 (str-1). Put plainly: Resistance level to antibiotic on LB agar. As to conditions: 1 days on LB agar.
Text: as §1

Assay [4] relates to P. putida strain no. 9 (str-2). Put plainly: Resistance level to antibiotic on LB agar. The conditions noted are these: 1 days on LB agar.
Text: as §1

In assay [5] the test system is P. putida strain no. 10 (str-1). Briefly: Resistance level to antibiotic on LB agar. As to conditions: 1 days on LB agar.
Text: as §1

The subject of assay [6] is P. putida strain no. 8 (str-1). Briefly: Resistance level to antibiotic on LB agar. As to conditions: 1 days on LB agar.
Text: as §1

For assay [7], the system named is P. putida strain no. 4 (str-1). Put plainly: Resistance level to antibiotic on LB agar. As to conditions: 1 days on LB agar.
Text: as §1

Assay [8] has as its system P. putida strain no. 3 (str-1). Put plainly: Resistance level to antibiotic on LB agar. As to conditions: 1 days on LB agar.
Text: as §1

Assay [9] concerns strain no. 3 carrying plasmid pYI433 containing the wild-type rpsL gene. Briefly: Complementation experiment, streptomycin resistance. The conditions noted are these: strain no. 3 carrying pYI433; about the same as wild-type levels. The source says: To clone the rpsL gene, a 0.9-kb DNA region covering whole rpsL was amplified from the chromosomal DNA of P. putida KH146-2 using KDO DNA polymerase (Toyobo Biochemicals, Osaka). Oligonucleotide primers were designed according to the rpoC-rpsL-rpsG sequence of P. putida KT2440 (www.tigr.org); 5′-[…]-3′ (SEQ ID NO:7—nucleotides [nt]−368 to −341 upstream of rpsL) and 5′-[…]-3′ (SEQ ID NO:8—complementary to nt 107 to 135 downstream of rpsL). The amplified DNA fragments were cloned into plasmid pUC118 (Vieira and Messing, (1987) Methods Enzymol 153: 3–11) to confirm the sequence, then excised from the plasmids as a BamHI-SphI fragment using the restriction sites in the multi-cloning sequence of the vector and inserted between the BglII and SphI sites of the E. coli-Pseudomonas shuttle vector pNIT6010 carrying tet^R, a derivative of pNIT6011 (Nishijyo et al. (2001) Mol Microbiol 40:917–931). The resultant plasmid pYI433, as well as vector control pNIT6010, was introduced into the Str mutant no. 3 (str-1) by conjugation using E. coli HB101/pRK2013 as the helper (Comai et al. (1983) Plasmid 10:21–30). Fifty μg ml^−1 of tetracycline was used for selection of transformants.
[…]

Assay [10] concerns the eight Str mutants with increased tolerance to 4HBA. Put plainly: Resistance level to streptomycin, Str mutants as a group.
Text: as §1
Streptomycin resistance frequently results from a mutation in the rpsL gene for the ribosomal protein S12 (Hosoya et al., ((1998) Antimirob Agents Chemother 42:204–2047); Inaoka et al., ((2001) J Bacteriol 183:4958–4963); Shima et al., ((1996) J Bacterial 178:7276–7284)). Rifampicin resistance results from a mutation in the rpoB gene (β-subunit of RNA polymerase) (Heep et al., ((1999) Antimicrob Agents Chemother 43:1497–1499); Jin and Gross, ((1988) J Mol Biol 202:45–58); Wichelhaus et al., ((1999) Antimicrob Agents Chemother 43:2813–2816); Hu et al., ((2002) J Bacteriol 184: 3984–3991)). We therefore sequenced and compared the rpsL gene and rpoB gene from the mutants to the wild-type strain.

On to `[H]/N=C(/N)N[C@H]1[C@H](O)[C@@H](O)[C@H](O[C@@H]2O[C@@H](C)[C@](O)(C=O)[C@H]2O[C@@H]2O[C@@H](CO)[C@H](O)[C@@H](O)[C@@H]2NC)[C@@H](N/C(N)=N\[H])[C@@H]1O` [streptomycin], for which, in the assay with parental strain KH146-2, the “Concentration completely suppressing growth” value came out at 100 µg/mL. The “Resistance level to antibiotic” value in assay [1], in [2], in assay [3], in [4], in assay [5] and in assay [6] was >100,000 (STR) μg ml^−1 in each case. Further, the “Resistance level to antibiotic” value in assay [7] and in [8] was >100,000 (STR) μg ml^−1 throughout. In addition, the “levels of Str (streptomycin resistance)” value in assay [9] lay in the range of 100 to 200 µg/mL. In addition, in assay [10], the “level of resistance to streptomycin” value is more than 100 mg/mL. Also, the “resistance compared to the wild-type strain” value in assay [10] is given as more than 1000 fold.
